From patent publication US12291519B2, “2-hydroxycycloalkane-1-carbamoyl” (Idorsia Pharmaceuticals Ltd, priority 2019, dated 2025)
pIC50: −log10 of the molar value.

Legend:
human Gal-3 (hGal-3) = human Gal-3 (hGal-3) (Homo sapiens (Human), UniProt P17931); test: Competitive binding assay: biotinylated hGal-3 binding to microplate-adsorbed asialofetuin (ASF); settings: Activity on hGal-3; binding of biotinylated hGal-3 to ASF-coated plates; mean values
How it was run: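 Serially diluted compounds competed with biotinylated human Gal-3 for binding to plate-adsorbed asialofetuin over 3 h at 4 °C. Bound Gal-3 was detected with streptavidin-peroxidase (80 ng/mL, 1 h, 4 °C) and ABTS substrate. IC50 values are means of several measurements.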

human Gal-1 (hGal-1) = test: Competitive binding assay: biotinylated hGal-1 binding to microplate-adsorbed asialofetuin (ASF); settings: Activity on hGal-1; binding of biotinylated hGal-1 to ASF-coated plates; mean values
How it was run: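 Biotinylated hGal-1 (300–1000 ng/mL; optionally a cysteine-free all-serine variant) incubated 3 h at 4 °C with compound on asialofetuin-coated plates, then streptavidin-peroxidase 1 h at 4 °C. ABTS readout at OD 410 nm after 30–45 min; IC50 given as mean of several runs.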

human Gal-3 (hGal-3), sequence (P17931 whole entry): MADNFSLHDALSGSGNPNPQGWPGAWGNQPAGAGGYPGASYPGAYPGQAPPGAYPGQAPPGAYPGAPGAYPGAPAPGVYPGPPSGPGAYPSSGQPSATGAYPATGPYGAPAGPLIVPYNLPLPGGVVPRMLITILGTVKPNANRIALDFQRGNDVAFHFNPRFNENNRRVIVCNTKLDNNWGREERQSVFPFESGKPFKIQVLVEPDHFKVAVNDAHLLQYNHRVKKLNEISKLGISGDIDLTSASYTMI
human Gal-1 (hGal-1), sequence (P09382 2-135 limits assumed): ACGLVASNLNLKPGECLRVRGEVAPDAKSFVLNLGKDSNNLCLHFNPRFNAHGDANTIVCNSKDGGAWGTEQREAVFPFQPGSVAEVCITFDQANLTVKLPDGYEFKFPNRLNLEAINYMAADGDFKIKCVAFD

SMILES | pIC50 (human Gal-3 (hGal-3)) | pIC50 (human Gal-1 (hGal-1))
CO[C@@H]1[C@@H](n2cc(-c3cc(F)c(F)c(F)c3)nn2)[C@@H](O)[C@@H](CO)O[C@H]1C(=O)N(Cc1nccn1C)[C@H]1CCCC[C@@H]1O [Example 37, (2R,3R,4S,5R,6R)-5-hydroxy-N-((1S,2S)-2-hydroxycyclohexyl)-6-(hydroxymethyl)-3-methoxy-N-((1-methyl-1H-imidazol-2-yl)methyl)-4-(4-(3,4,5-trifluorophenyl)-1H-1,2,3-triazol-1-yl)tetrahydro-2H-pyran-2-carboxamide] | 6.47 | 5.24
CO[C@@H]1[C@@H](n2cc(-c3cc(F)c(F)c(F)c3)nn2)[C@@H](O)[C@@H](CO)O[C@H]1C(=O)N(Cc1ccnn1C)[C@H]1CCCC[C@@H]1O [Example 32] | 6.91 | 6.04
CC(=O)O[C@@H]1[C@@H](n2cc(-c3cccc(F)c3)nn2)[C@@H](O)[C@@H](CO)O[C@H]1C(=O)N(Cc1ccccc1C(F)(F)F)[C@H]1CCCC[C@@H]1O [Example 62, (2R,3R,4S,5R,6R)-4-(4-(3-fluorophenyl)-1H-1,2,3-triazol-1-yl)-5-hydroxy-2-(((1S,2S)-2-hydroxycyclohexyl)(2-(trifluoromethyl)benzyl)carbamoyl)-6-(hydroxymethyl)tetrahydro-2H-pyran-3-yl acetate] | 6.85 | 6.03
CO[C@@H]1[C@@H](n2cc(-c3cc(F)c(F)c(F)c3)nn2)[C@@H](O)[C@@H](CO)O[C@H]1C(=O)N(Cc1nc2ccccc2cc1Cl)[C@H]1CCCC[C@@H]1O [Example 65, (2R,3R,4S,5R,6R)-N-((3-chloroquinolin-2-yl)methyl)-5-hydroxy-N-((1S,2S)-2-hydroxycyclohexyl)-6-(hydroxymethyl)-3-methoxy-4-(4-(3,4,5-trifluorophenyl)-1H-1,2,3-triazol-1-yl)tetrahydro-2H-pyran-2-carboxamide] | 6.71 | 5.17
CO[C@@H]1[C@@H](n2cc(-c3cc(F)c(F)c(F)c3)nn2)[C@@H](O)[C@@H](CO)O[C@H]1C(=O)N(Cc1cccc(Cl)c1)[C@H]1CCCC[C@@H]1O [Example 53, (2R,3R,4S,5R,6R)-N-(3-chlorobenzyl)-5-hydroxy-N-((1S,2S)-2-hydroxycyclohexyl)-6-(hydroxymethyl)-3-methoxy-4-(4-(3,4,5-trifluorophenyl)-1H-1,2,3-triazol-1-yl)tetrahydro-2H-pyran-2-carboxamide] | 6.06 | 4.97
O=C([C@@H]1O[C@H](CO)[C@H](O)[C@H](n2cc(-c3cc(F)c(F)c(F)c3)nn2)[C@H]1O)N(Cc1cnoc1)[C@H]1CCCC[C@@H]1O [Example 16, (2R,3R,4S,5R,6R)-3,5-dihydroxy-N-((1S,2S)-2-hydroxycyclohexyl)-6-(hydroxymethyl)-N-(isoxazol-4-ylmethyl)-4-(4-(3,4,5-trifluorophenyl)-1H-1,2,3-triazol-1-yl)tetrahydro-2H-pyran-2-carboxamide] | 6.32 | 4.55
CCn1nccc1CN(C(=O)[C@@H]1O[C@H](CO)[C@H](O)[C@H](n2cc(-c3cc(F)c(F)c(F)c3)nn2)[C@H]1OC)[C@H]1CCCC[C@@H]1O [Example 44, (2R,3R,4S,5R,6R)-N-((1-ethyl-1H-pyrazol-5-yl)methyl)-5-hydroxy-N-((1S,2S)-2-hydroxycyclohexyl)-6-(hydroxymethyl)-3-methoxy-4-(4-(3,4,5-trifluorophenyl)-1H-1,2,3-triazol-1-yl)tetrahydro-2H-pyran-2-carboxamide] | 6.75 | 6.01
CO[C@@H]1[C@@H](n2cc(-c3ccc(C#N)c(F)c3)nn2)[C@@H](O)[C@@H](CO)O[C@H]1C(=O)N(c1cc(C)cc(C#N)c1)[C@H]1CCCC[C@@H]1O [Example 206, (2R,3R,4S,5R,6R)-4-(4-(4-cyano-3-fluorophenyl)-1H-1,2,3-triazol-1-yl)-N-(3-cyano-5-methylphenyl)-5-hydroxy-N-((1S,2S)-2-hydroxycyclohexyl)-6-(hydroxymethyl)-3-methoxytetrahydro-2H-pyran-2-carboxamide] | 6.90 | 5.87
Nc1nc(Cl)c(CN(C(=O)[C@@H]2O[C@H](CO)[C@H](O)[C@H](n3cc(-c4cc(F)c(F)c(F)c4)nn3)[C@H]2O)[C@H]2CCCC[C@@H]2O)s1 [Example 15, (2R,3R,4S,5R,6R)-N-((2-amino-4-chlorothiazol-5-yl)methyl)-3,5-dihydroxy-N-((1S,2S)-2-hydroxycyclohexyl)-6-(hydroxymethyl)-4-(4-(3,4,5-trifluorophenyl)-1H-1,2,3-triazol-1-yl)tetrahydro-2H-pyran-2-carboxamide] | 6.38 | 5.50
CO[C@@H]1[C@@H](n2cc(-c3cc(F)c(F)c(F)c3)nn2)[C@@H](O)[C@@H](CO)O[C@H]1C(=O)N(c1ccccc1)[C@H]1CCCC[C@@H]1O [Example 100, (2R,3R,4S,5R,6R)-5-hydroxy-N-((1S,2S)-2-hydroxycyclohexyl)-6-(hydroxymethyl)-3-methoxy-N-phenyl-4-(4-(3,4,5-trifluorophenyl)-1H-1,2,3-triazol-1-yl)tetrahydro-2H-pyran-2-carboxamide] | 7.14 | 4.73
O=C([C@@H]1O[C@H](CO)[C@H](O)[C@H](n2cc(-c3ccc(Br)c(F)c3)nn2)[C@H]1O)N(Cc1ccccc1C(F)(F)F)[C@H]1CCCC[C@@H]1O [Example 70, (2R,3R,4S,5R,6R)-4-(4-(4-bromo-3-fluorophenyl)-1H-1,2,3-triazol-1-yl)-3,5-dihydroxy-N-((1S,2S)-2-hydroxycyclohexyl)-6-(hydroxymethyl)-N-(2-(trifluoromethyl)benzyl)tetrahydro-2H-pyran-2-carboxamide] | 7.05 | 6.21
CO[C@@H]1[C@@H](n2cc(-c3ccc(Cl)c(OC(F)(F)F)c3)nn2)[C@@H](O)[C@@H](CO)O[C@H]1C(=O)N(c1cc(Cl)cc(C#N)c1)[C@H]1CCCC[C@@H]1O [Example 185, (2R,3R,4S,5R,6R)-4-(4-(4-chloro-3-(trifluoromethoxy)phenyl)-1H-1,2,3-triazol-1-yl)-N-(3-chloro-5-cyanophenyl)-5-hydroxy-N-((1S,2S)-2-hydroxycyclohexyl)-6-(hydroxymethyl)-3-methoxytetrahydro-2H-pyran-2-carboxamide] | 6.63 | 5.86

The next molecules have a higher pIC50 (human Gal-3 (hGal-3)) than those just listed; values first:

pIC50 (human Gal-3 (hGal-3)) | pIC50 (human Gal-1 (hGal-1)) | SMILES
7.59 | 6.91 | CO[C@@H]1[C@@H](n2cc(-c3ccc(Cl)c(F)c3F)nn2)[C@@H](O)[C@@H](CO)O[C@H]1C(=O)N(c1cc(Cl)cc(C#N)c1)[C@H]1CCCC[C@@H]1O [Example 178, (2R,3R,4S,5R,6R)-4-(4-(4-chloro-2,3-difluorophenyl)-1H-1,2,3-triazol-1-yl)-N-(3-chloro-5-cyanophenyl)-5-hydroxy-N-((1S,2S)-2-hydroxycyclohexyl)-6-(hydroxymethyl)-3-methoxytetrahydro-2H-pyran-2-carboxamide]
7.92 | 6.28 | CO[C@@H]1[C@@H](n2cc(-c3cc(F)c(C)c(F)c3)nn2)[C@@H](O)[C@@H](CO)O[C@H]1C(=O)N(c1cc(Cl)cc(C#N)c1)[C@H]1CCCC[C@@H]1O [Example 159, (2R,3R,4S,5R,6R)-N-(3-chloro-5-cyanophenyl)-4-(4-(3,5-difluoro-4-methylphenyl)-1H-1,2,3-triazol-1-yl)-5-hydroxy-N-((1S,2S)-2-hydroxycyclohexyl)-6-(hydroxymethyl)-3-methoxytetrahydro-2H-pyran-2-carboxamide]
7.28 | 6.57 | CO[C@@H]1[C@@H](n2cc(-c3cc(F)cc(Cl)c3)nn2)[C@@H](O)[C@@H](CO)O[C@H]1C(=O)N(c1cc(F)cc(C#N)c1)[C@H]1CCCC[C@@H]1O [Example 135, (2R,3R,4S,5R,6R)-4-(4-(3-chloro-5-fluorophenyl)-1H-1,2,3-triazol-1-yl)-N-(3-cyano-5-fluorophenyl)-5-hydroxy-N-((1S,2S)-2-hydroxycyclohexyl)-6-(hydroxymethyl)-3-methoxytetrahydro-2H-pyran-2-carboxamide]
7.24 | 5.91 | O=C([C@@H]1O[C@H](CO)[C@H](O)[C@H](n2cc(-c3cc(F)c(F)c(F)c3)nn2)[C@H]1O)N(Cc1ccccc1C(F)(F)F)[C@H]1CCCC[C@@H]1O [Example 7, (2R,3R,4S,5R,6R)-3,5-dihydroxy-N-((1S,2S)-2-hydroxycyclohexyl)-6-(hydroxymethyl)-N-(2-(trifluoromethyl)benzyl)-4-(4-(3,4,5-trifluorophenyl)-1H-1,2,3-triazol-1-yl)tetrahydro-2H-pyran-2-carboxamide]
7.60 | 5.97 | CO[C@@H]1[C@@H](n2cc(-c3cc(F)c(Br)c(F)c3)nn2)[C@@H](O)[C@@H](CO)O[C@H]1C(=O)N(c1ccc2scnc2c1)[C@H]1CCCC[C@@H]1O [Example 153, (2R,3R,4S,5R,6R)-N-(benzo[d]thiazol-5-yl)-4-(4-(4-bromo-3,5-difluorophenyl)-1H-1,2,3-triazol-1-yl)-5-hydroxy-N-((1S,2S)-2-hydroxycyclohexyl)-6-(hydroxymethyl)-3-methoxytetrahydro-2H-pyran-2-carboxamide]
7.74 | 5.89 | CO[C@@H]1[C@@H](n2cc(-c3ccc(Br)c(F)c3)nn2)[C@@H](O)[C@@H](CO)O[C@H]1C(=O)N(c1cc(Cl)cc(Cl)c1)[C@H]1CCCC[C@@H]1O [Example 163, (2R,3R,4S,5R,6R)-4-(4-(4-bromo-3-fluorophenyl)-1H-1,2,3-triazol-1-yl)-N-(3,5-dichlorophenyl)-5-hydroxy-N-((1S,2S)-2-hydroxycyclohexyl)-6-(hydroxymethyl)-3-methoxytetrahydro-2H-pyran-2-carboxamide]
7.68 | 6.14 | CO[C@@H]1[C@@H](n2cc(-c3cc(F)c(F)c(F)c3)nn2)[C@@H](O)[C@@H](CO)O[C@H]1C(=O)N(c1cccc(Cl)c1)[C@H]1CCCC[C@@H]1O [Example 58]
